Measurements as given in patent US20190091227A1, “METHODS FOR TREATING ER+, HER2-, HRG+ BREAST CANCER USING COMBINATION THERAPIES COMPRISING AN ANTI-ERBB3 ANTIBODY” (Merrimack Pharmaceuticals, Inc., priority 2016, published 2019).
Like-named read-outs stand apart in the source and are kept apart here.

Experiments:
MCF7 cells [1] = assay: Cell cycle / S-phase by EdU incorporation and flow cytometry in MCF7 cells; type: cell-based, human
Experimental: FIG. 13 is a representative FACS plot of the cell cycle distribution. The gate settings and percentage for cells in G0/G1, S and G2/M phases are indicated. DNA synthesis (S-phase) was determined by quantifying cells positive for both EdU incorporation and DNA content.

RB = RB phosphorylation (S807/811, S780) by Western blotting in MCF7 cells; type: cell-based, human; conditions: for RB phosphorylation / activation: MCF7, 20-24 hours, HRG 10 nM, fulvestrant 50 nM, palbociclib, abemaciclib 40 nM
Experimental: MCF7 cells were cultured as described above. […] Cellular lysates were prepared by lysis in MPER lysis buffer with the addition of protease and phosphatase inhibitors for 30 mins on ice. Cellular debris were removed by centrifugation at 10,000 rpm. Proteins were analyzed by Western blotting according to standard protocols. Protein loading was estimated by blotting with a β-actin antibody (β-Actin (13E5) Rabbit mAb #4970 Cell Signal) and RB activation was measured by detection of phosphorylation of RB (pRB) at pRb (S807/811): Cat #8516 pRb (S780): Cat #8180. Control antibodies as follows total AKT: Cat #9272 pAKT: Cat #4060.

T47D cells = assay: Proliferation assay (Cell Titer-Glo), T47D; type: cell-based, human
Experimental: (§1) Cells were seeded in duplicate or triplicate at 1500 to 5000 cells per well in 96 well plates, Opaque-walled 96-well plates with clear bottom: 96-well, Black/Clear, Flat bottom with lid, FALCON, 353219 in reduced serum conditions at either 3% v/v FBS or 1% v/v FBS. The day after plating recombinant HRGβ1 was added to yield a final concentration of 10 nM. Control wells received media without HRGβ1. Plates were then incubated for the indicated time period of 4 to 6 days at 37° C. in a humid atmosphere with 95% air, 5% CO2.
(§2) The day after plating recombinant HRGβ1 was added to yield a final concentration of 10 nM. Control wells received media without HRGβ1. […] Where indicated CDK inhibitors were added at 10 μM and dilutions were performed to generate a dose-response curve with 2 controls wells per row. Plates were then incubated for the indicated time period of 4 to 6 days at 37° C. in a humid atmosphere with 95% air, 5% CO2. Growth inhibition was calculated as a function of the relative inhibition or proliferation of cells treated with either growth factor or antagonists to cells treated with diluent only, over the same time period.
(§3) The day after plating recombinant HRGβ1 was added to yield a final concentration of 10 nM. Control wells received media without HRGβ1. […] Where indicated CDK inhibitors were added at 10 μM and dilutions were performed to generate a dose-response curve with 2 controls wells per row. Plates were then incubated for the indicated time period of 4 to 6 days at 37° C. in a humid atmosphere with 95% air, 5% CO2.
(§4) To measure proliferation, Cell Titer-Glo (CTG) assays were performed as per manufacturer's instructions. Specifically, reagent-1 and reagent-2 were equilibrated to room temperature at which point reagent-1 was added to reagent-2 and mixed by vortex. Test plates containing cells were equilibrated to room temperature for 30 minutes at which point an equal volume of CTG reagent was added to each well of the test plate, typically 100 μl to give a final volume of 200 μl per well. Each plate was then sealed with a foil plate sealer and mixed on an orbital shaker for 10 minutes to lyse cells and release cellular ATP. Following mixing plates were incubated at room temperature for 15 minutes to stabilize the luminescent signal. Data was collected by measuring relative luminescence on a Synergy H1 plate reader using the luminescence program. Growth was calculated and expressed as a relative value to the unstimulated control wells on each individual plate. Growth inhibition was calculated as a function of the relative inhibition of cells treated with antagonists to the growth of cells treated with diluent only, over the same time period. Data was then plotted using GraphPad Prism software.

CDK2 = CDK2 activation (phospho-Thr160) by Western blotting in MCF7 cells; type: cell-based, human
Experimental: Cellular lysates were prepared by lysis in MPER lysis buffer with the addition of protease and phosphatase inhibitors for 30 minutes on ice. Cellular debris was removed by centrifugation at 10,000 rpm. Proteins were analyzed by Western blotting according to standard protocols.

MCF7 cells [2] = assay: Proliferation assay (Cell Titer-Glo), MCF7; type: cell-based, human; conditions: for proliferation: MCF7, single agent CDK4/6 inhibitor over a dose range
Experimental: as §1, §2, §3, §4

[3] = cited from earlier work
MCF-7Ca xenograft tumors = assay: MCF-7Ca xenograft model of post-menopausal ER+ breast cancer; type: in vivo, mice
Experimental: A model of post-menopausal ER+ breast cancer was used to determine the effect of blocking HRG-mediated ERB3 signaling and/or estrogen-mediated ER activation on tumor growth (FIG. 16). […] Changes in mean tumor volume (±SEM) were determined weekly by caliper measurement.

MCF7 cells [4] = assay: MCF7 orthotopic xenograft model of ER+ HER2- breast cancer; type: in vivo; conditions: SHO mice
Experimental: Female SHO mice (Charles River Laboratories) aged 8-10 weeks were implanted with 17-beta-estradiol pellets (0.72 mg/pellet) and 2 days later, injected with 100 μl of 5×10^6 MCF7 cells suspended in 50% DPBS/50% matrigel into the abdominal mammary fat pad. Tumor growth was monitored twice a week and tumor volumes were calculated following external caliper measurement according to the formula (tumor size=π/6×[length×width^2]). Once the average measured tumor volume had reached approximately 200 mm^3, mice were randomized into groups and treatment was administered. Overall, the average starting tumor volume per group was equivalent across all groups. Fulvestrant was dosed at 500 μg per mouse once per week via subcutaneous delivery. Palbociclib was dosed at 25 mg/kg, orally every day for 5 days, Monday through Friday.

ZR75-1 cells = assay: Proliferation assay (Cell Titer-Glo), ZR75-1; type: cell-based, human; conditions: ZR75-1, CDK4/6 inhibitor plus HRG
Experimental: as §2
The day after plating recombinant HRGβ1 was added to yield a final concentration of 10 nM. Control wells received media without HRGβ1. […]
To measure proliferation, Cell Titer-Glo (CTG) assays were performed as per manufacturer's instructions. […] Data was collected by measuring relative luminescence on a Synergy H1 plate reader using the luminescence program. Growth was calculated and expressed as a relative value to the unstimulated control wells on each individual plate. Growth inhibition was calculated as a function of the relative inhibition of cells treated with antagonists to the growth of cells treated with diluent only, over the same time period. […]

Molecule: C[C@]12CC[C@@H]3c4ccc(O)cc4C[C@@H](CCCCCCCCC[S+]([O-])CCCC(F)(F)C(F)(F)F)[C@H]3[C@@H]1CC[C@@H]2O (stereo partly drawn) [fulvestrant, 7-alpha-[9-(4,4,5,5,5-pentafluoropentylsulphinyl)nonyl]estra-1,3,5-(10)-triene-3,17beta-diol, reference compound]
- S-phase cell cycle progression (MCF7 cells [1]; MCF7, single agents in the absence of HRG): efficacious at inhibiting S-phase cell cycle progression
- RB phosphorylation / activation (RB): inhibits RB activation
- fulvestrant activity on proliferation (T47D cells; HRG present in addition to estradiol): significantly decreased
- inhibition of estradiol induced proliferation (T47D cells; fulvestrant 100 nM, 6 days): effective at inhibiting estradiol induced proliferation
- CDK2 activation (CDK2; MCF7, agent alone, 20-24 hours, HRG 10 nM, fulvestrant, palbociclib, abemaciclib 100 nM): inhibited CDK2 activation
- degree of inhibition of proliferation (MCF7 cells [2]; MCF7, CDK4/6 inhibitor plus fulvestrant (50 nM)): greater than the activity of the CDK4/6 inhibitor alone
- fulvestrant activity on proliferation (MCF7 cells [2]; MCF7, HRG present in addition to estradiol): significantly decreased
- inhibition of estradiol induced proliferation (MCF7 cells [2]; MCF7, fulvestrant 100 nM, 6 days): effective at inhibiting estradiol induced proliferation

Molecule: CC(C)(C#N)c1cc(Cn2cncn2)cc(C(C)(C)C#N)c1 [anastrozole, a,a,a′,a′-Tetramethyl-5-(1H-1,2,4-triazol-1-ylmethyl)-1,3-benzenediacetonitrile]
- solubility ([3]; in acetone): freely soluble
- solubility ([3]; in acetonitrile): very soluble
- solubility ([3]; in ethanol): freely soluble
- solubility ([3]; in methanol): freely soluble
- solubility ([3]; in tetrahydrofuran): freely soluble

Molecule: CCN1CCN(Cc2ccc(Nc3ncc(F)c(-c4cc(F)c5nc(C)n(C(C)C)c5c4)n3)nc2)CC1 [abemaciclib, 2-pyrimidinamine, N-(5-((4-ethyl-1-piperazinyl)methyl)-2-pyridinyl)-5-fluoro-4-(4-fluoro-2-methyl-1-(1-methylethyl)-1H-benzimidazol-6-yl), reference compound]
- RB phosphorylation / activation (RB): decrease RB activation
- proliferation (MCF7 cells [2]; 6 days): inhibited proliferation in a dose dependent manner

Molecule: CN(C)C(=O)c1cc2cnc(Nc3ccc(N4CCNCC4)cn3)nc2n1C1CCCC1 [ribociclib, 7-cyclopentyl-N,N-dimethyl-2-((5-(piperazin-1-yl)pyridin-2-yl)amino)-7H-pyrrolo[2,3-d]pyrimidine-6-carboxamide, reference compound]
- proliferation (MCF7 cells [2]; 6 days): inhibited proliferation in a dose dependent manner

Molecule: N#Cc1ccc(C(c2ccc(C#N)cc2)n2cncn2)cc1 [letrozole, 4,4′-(1H-1,2,4-Triazol-1-ylmethylene)dibenzonitrile]
- tumor response (MCF-7Ca xenograft tumors; letrozole 10 μg/mouse/day x 5 days/week SQ): initially responded
- start of development of resistance (MCF-7Ca xenograft tumors; letrozole monotherapy, time of treatment): 7-8 weeks
- solubility ([3]; in dichloromethane): freely soluble
- solubility ([3]; in ethanol): slightly soluble
- solubility ([3]; in water): practically insoluble

B1: seribantumab: human monoclonal anti-ErbB3 IgG2; heavy and light chains SEQ ID NO: 7 and 8 (antibody)
heavy: EVQLLESGGGLVQPGGSLRLSCAASGFTFSHYVMAWVRQAPGKGLEWVSSISSSGGWTLYADSVKGRFTISRDNSKNTLYLQMNSLRAEDTAVYYCTRGLKMATIFDYWGQGTLVTVSSASTKGPSVFPLAPCSRSTSESTAALGCLVKDYFPEPVTVSWNSGALTSGVHTFPAVLQSSGLYSLSSVVTVPSSNFGTQTYTCNVDHKPSNTKVDKTVERKCCVECPPCPAPPVAGPSVFLFPPKPKDTLMISRTPEVTCVVVDVSHEDPEVQFNWYVDGVEVHNAKTKPREEQFNSTFRVVSVLTVVHQDWLNGKEYKCKVSNKGLPAPIEKTISKTKGQPREPQVYTLPPSREEMTKNQVSLTCLVKGFYPSDIAVEWESNGQPENNYKTTPPMLDSDGSFFLYSKLTVDKSRWQQGNVFSCSVMHEALHNHYTQKSLSLSPGK
light: QSALTQPASVSGSPGQSITISCTGTSSDVGSYNVVSWYQQHPGKAPKLIIYEVSQRPSGVSNRFSGSKSGNTASLTISGLQTEDEADYYCCSYAGSSIFVIFGGGTKVTVLGQPKAAPSVTLFPPSSEELQANKATLVCLVSDFYPGAVTVAWKADGSPVKVGVETTKPSKQSNNKYAASSYLSLTPEQWKSHRSYSCRVTHEGSTVEKTVAPAECS
- effect of seribantumab on cell cycle inhibitory activity of fulvestrant or palbociclib (MCF7 cells [1]; MCF7, in the presence of HRG): restores this activity
- effect of seribantumab on cell cycle inhibitory activity of the palbociclib-fulvestrant combination (MCF7 cells [1]; MCF7, in the presence of HRG): restored this activity
- resistance to letrozole (MCF-7Ca xenograft tumors; co-treated with letrozole and seribantumab): substantially delayed
- tumor growth (MCF-7Ca xenograft tumors; co-treated with letrozole and seribantumab (750 μg/mouse IP)): tumor growth was inhibited
- tumor growth of letrozole-resistant tumors (MCF-7Ca xenograft tumors; re-randomized at week 14, letrozole and seribantumab compared to letrozole alone): significantly decreased tumor growth
- effect of seribantumab on activity of fulvestrant, palbociclib and abemaciclib on RB (RB; MCF7, seribantumab 1 uM, with HRG, alone or in combination): restored the activity
- effect on HRG-induced CDK2 activation (CDK2; MCF7, in the presence of fulvestrant or CDK4/6 inhibitors palbociclib and abemaciclib): blocked HRG mediated activation of CDK2
- effect on HRG-induced CDK2 activation (CDK2; MCF7, seribantumab 1 uM, HRG 10 nM): can block the activating effect of HRG on CDK2 activation
- effect of adding seribantumab on CDK4/6 inhibitor activity (MCF7 cells [2]; MCF7, CDK4/6 inhibitor plus HRG 10 nM): restored CDK inhibitory activity
- effect of adding seribantumab on the CDK4/6 inhibitor-fulvestrant combination (MCF7 cells [2]; MCF7, with HRG): restored sensitivity
- effect of adding seribantumab on proliferation (MCF7 cells [2]; MCF7 treated with fulvestrant, estradiol and HRG): restoration of the activity of fulvestrant
- growth inhibition, addition of seribantumab to the combination of palbociclib and fulvestrant (MCF7 cells [4]): increases the growth inhibition
- antitumor efficacy, addition of seribantumab to fulvestrant (MCF7 cells [4]; seribantumab 600 μg twice per week IP, fulvestrant 500 μg once per week SC): increased the antitumor efficacy
- antitumor efficacy, addition of seribantumab to palbociclib (MCF7 cells [4]; seribantumab 600 μg twice per week IP, palbociclib 25 mg/kg orally): increased the antitumor efficacy
- effect of adding seribantumab on CDK4/6 inhibitor activity (ZR75-1 cells): restored sensitivity
